From patent US7820212B2, “Abietane diterpenoid compound, and composition comprising extract of Torreya nucifera, or abietane diterpenoid compounds or terpenoid compounds isolated from them for prevention and treatment of cardiovascular disease” (Korea Research Institute of Bioscience and Biotechnology, priority 2004, dated 2010)

Assays:
hACAT-1 = biological target: T1, hACAT-1 (Homo sapiens, UniProt P35610); assay: ACAT activity, microsomal fraction of Hi5 cells over-expressing hACAT-1; type: biochemical
T1 construct: made in house; host or cells: Hi5 insect cells infected with recombinant baculovirus (virus produced in sf9 cells); microsomal fraction used
T1 sequence (P35610 1-550): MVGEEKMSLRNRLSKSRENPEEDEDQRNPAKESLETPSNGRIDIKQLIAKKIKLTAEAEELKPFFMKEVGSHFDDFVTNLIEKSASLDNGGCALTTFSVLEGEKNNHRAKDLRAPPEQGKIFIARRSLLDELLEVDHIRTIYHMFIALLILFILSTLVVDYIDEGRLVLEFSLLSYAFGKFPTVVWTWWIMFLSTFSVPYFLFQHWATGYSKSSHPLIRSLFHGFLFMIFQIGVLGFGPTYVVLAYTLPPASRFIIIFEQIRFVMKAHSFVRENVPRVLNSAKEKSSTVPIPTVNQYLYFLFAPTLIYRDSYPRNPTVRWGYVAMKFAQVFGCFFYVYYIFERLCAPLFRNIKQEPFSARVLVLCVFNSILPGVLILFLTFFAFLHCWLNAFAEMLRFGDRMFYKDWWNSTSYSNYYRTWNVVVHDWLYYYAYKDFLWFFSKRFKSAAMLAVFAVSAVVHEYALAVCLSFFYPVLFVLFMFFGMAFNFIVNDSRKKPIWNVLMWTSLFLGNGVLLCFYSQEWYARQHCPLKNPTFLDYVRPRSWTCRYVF
Description: (§1) In order to investigate the effect on hACAT-1 and hACAT-2 activities, hACAT-1 and hACAT-2 proteins were first obtained by taking advantage of baculovirus expression system.
(§2) cDNAs of hACAT-1 and hACAT-2 obtained from human liver cDNA library screening were inserted into baculovirus transfer vector, which was then introduced into insect sf9 cells to produce virus. Then, recombinant viruses of HACAT-1 and hACAT-2 were separated by plaque purification method, and amplification was performed three times to increase titer of viral stock. Hi5 insect cells having a good protein expression efficacy were infected with the recombinant virus, making multiplicity of infection as 1, followed by shaking culture at 27° C. for one day.
(§3) The cultured Hi5 cells over-expressing hACAT-1 and hACAT-2 were centrifuged at 500×g for 15 minutes to separate microsomal fraction. Then, cells were crushed in hypotonic buffer by quick freezing quick thawing, followed by ultracentrifugation at 100,000×g for one hour.
(§4) The obtained microsomal fractions were suspended in storage buffer solution, adjusting protein content to 8 mg/ml, which was stored in a deep freezer before using.
(§5) 6.67 μl of cholesterol dissolved in acetone at the concentration of 1 mg/ml was mixed with 6 μl of 10% triton WR 1339 (Sigma Co.) in acetone. And acetone was evaporated by nitrogen gas. Distilled water was added to the resultant mixture to adjust the content of cholesterol to […].
(§6) To 10 μl of cholesterol solution was added 10 μl of 1 M KH2PO4 (pH 7.4), 5 μl of 0.6 mM BSA (bovine serum albumin), 10 μl of the microsomal solution obtained above, 10 μl of sample (T. nucifera extracts or abietane diterpenoid compound isolated from the same) and 45 μl of distilled water (total 90 μl). The mixture was pre-incubated in a 37° C. water bath for 30 minutes.
(§7) 10 μl of [1-^14C]oleyl-CoA solution (0.05 μCi, final concentration 10 μM) was added to the pre-incubated mixture, which was reacted in a 37° C. water bath for 30 minutes. To the mixture was added 500 μl of isopropanol:heptane solution (4:1 (v/v)), 300 μl of heptane and 200 μl of 0.1 M KH2PO4 (pH 7.4), which was stirred vigorously with vortex and then allowed to phase separation under gravity at room temperature for 2 minutes.
(§8) The 200 μl of upper phase was put in a scintillation vial, to which 4 ml of scintillation solution (Lipoluma, Lumac Co.) was added. Radioactivity of the upper phase was measured by a scintillation counter (1450 Microbeta liquid scintillation counter, Wallacoy, Finland).
(§9) ACAT activity was calculated based on the radioactivity, the amount of synthesized cholesteryl oleate, measured above and expressed as a defined unit, pico mole per 1 mg of protein for 1 minute (pico mole/minute/mg protein).

hACAT-2 = biological target: T2, hACAT-2 (Homo sapiens, UniProt O75908); assay: ACAT activity, microsomal fraction of Hi5 cells over-expressing hACAT-2; type: biochemical
T2 construct: made in house; host or cells: Hi5 insect cells infected with recombinant baculovirus (virus produced in sf9 cells); microsomal fraction used
T2 sequence (O75908 1-522): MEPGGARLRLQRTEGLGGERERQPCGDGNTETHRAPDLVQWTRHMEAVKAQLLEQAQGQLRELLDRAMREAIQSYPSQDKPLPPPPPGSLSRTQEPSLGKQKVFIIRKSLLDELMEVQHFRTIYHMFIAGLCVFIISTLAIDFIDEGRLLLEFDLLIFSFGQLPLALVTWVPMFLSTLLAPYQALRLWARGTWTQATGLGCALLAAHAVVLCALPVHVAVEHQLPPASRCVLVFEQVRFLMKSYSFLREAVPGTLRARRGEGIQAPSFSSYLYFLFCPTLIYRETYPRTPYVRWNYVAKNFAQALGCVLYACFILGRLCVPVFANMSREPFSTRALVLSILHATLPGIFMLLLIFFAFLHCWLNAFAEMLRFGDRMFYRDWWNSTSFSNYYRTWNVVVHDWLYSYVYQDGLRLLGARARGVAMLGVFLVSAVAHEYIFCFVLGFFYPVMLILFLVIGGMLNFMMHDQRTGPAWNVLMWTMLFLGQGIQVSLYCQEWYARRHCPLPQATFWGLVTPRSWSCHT
Description: as §1, §2, §3, §4, §5, §6, §7, §8, §9

C57BL/6J mice = assay: Cholesterol-lowering effect in mice on high-fat/high-cholesterol (HFHC) diet; type: in vivo; conditions: for HDL-cholesterol / HDL/total cholesterol / Total cholesterol: blood plasma, 1% extracts or 0.1% probucol (wt/wt diet)
Description: 30 specific pathogens free male C57BL/6J mice at the age of 6 weeks were raised in an animal facility, in which temperature was maintained as 22±3° C., humidity was kept as 55±10% and light was regulated as 12L/12D. The mice were adapted for about one week before being used for experiments. When they were at the age of 7 weeks (weight: 20˜22 g), they were divided into […] according to randomized block design. Group 1 mice were given with high-cholesterol/high-fat diet (CRF-1; AIN-76 test animal's normal diet supplemented with 1.25% cholesterol and 15% fat, Orient Yeast Co. Ltd., Japan), group 2 mice were given with high-fat/high-cholesterol (HFHC) diet together with 1% methanol extracts (wt/wt diet) of T. nucifera leaves (or 1% hot water extracts of T. nucifera leaves), and group 3 mice were treated with HFHC diet together with 0.1% probucol (wt/wt diet). All the mice of every group were free to take the diet and water for 10 days. Dietary intake was recorded everyday and weights of animals were measured every 5 days. Upon completion of breeding, all the records were analyzed. […] All the mice in three groups were sacrificed 10 days after the beginning of animal tests, then their blood was examined. Blood was taken from retro-orbital sinus of the sacrified mice by heparin treated capillary tube. Centrifugation was performed with blood at 8,000×g for 10 minutes. Blood plasma was separated from supernatant and then stored in a deep freezer. Total cholesterol content (TC) in blood plasma of each mouse of experimental group was measured by using a blood chemistry analyzer (CIBA Corning 550 Express, USA). In order to measure HDL-cholesterol, HDL measuring reagent (Chiron Diagnostics Co., USA), produced by the modified method for HDL measurement (references [(1) Stein E. A., et al.: Development and evaluation of a method for quantitation of plasma high-density-lipoprotein cholesterol. Clin. Chem. 24: 1112-1115, 1978; (2) Finley P. R., et al.: Cholesterol in high-density lipoprotein: use of Mg^2+/dextran sulfate in its enzymatic measurement. Clin. Chem., 24: 931-933, 1978; (3) Warnick G. R., et al.: Dextran sulfate-Mg^2+ precipitation procedure for quantitation of high-density lipoprotein cholesterol. Clin. Chem. 28: 1379-1388, 1982]) in which dextran sulfate and magnesium sulfate were added to serum of each mouse to precipitate LDL and VLDL and then HDL in supernatant was measured, was mixed with blood plasma of each experimental group at the ratio of 1:10. […] The resultant supernatant was put in a blood chemistry analyzer. A statistical computer program (Microsoft Excel, Version 7.0) was used to investigate and confirm (student t-test) the significance in difference in the results of blood analysis among experimental groups.

LDL = assay: Anti-oxidative activity to LDL by TBARS method (Cu2+ mediated LDL-oxidation); type: biochemical, human; conditions: 37° C. 4 hours, MDA by TBARS
Description: Cu^2+ is known to mediate LDL-oxidation. Thus, in the present invention, dialdehyde, which is an oxidation product of unsaturated fatty acid formed during Cu^2+ mediated LDL-oxidation, was measured by thiobarbituric acid reactive substances (TBARS) method in order to investigate the LDL anti-oxidative activity of T. nucifera extracts or abietane diterpenoid compound separated from the same (Ahn, B. T. et. al., Low-density Lipoprotein-Antioxidant Constituents of Saururus Chinensis, J. Nat. Prod. 64: 1562, 2001). Centrifugation was performed with 300 ml of human blood plasma by using a ultracentrifuge at 100,000×g for 24 hours to remove floating VLDL/chylomicron layer in the upper part. The specific gravity of the remaining solution was adjusted to 1.063 g/ml. Centrifugation was performed again at 100,000×g for 24 hours, and 25 ml of the floating LDL (1.5˜2.5 mg protein/ml) in the upper layer was separated. […] T. nucifera extracts or abietane diterpenoid compound isolated from the same was dissolved in DMSO (dimethylsulfoxide), and the solution was diluted at different concentrations before use. […] OD540 was measured with a UV/VIS spectrophotometer. Malondialdehyde (MDA) detected by the above coloring was quantified. […] MDA was quantified by using the standard curve in experiments with T. nucifera extracts or abietane diterpenoid compound isolated from the same.

Row | Molecule | IC50 (hACAT-1) [µM] | IC50 (hACAT-2) [µM] | other results
1 | CC(C)c1ccc2c(c1)CC[C@H]1[C@](C)(CO)CCC[C@]21C [Dehydroabietinol, dehydroabietinol] | 41 | 60 | –
2 | C=C[C@@]1(C)CC[C@H]2C(=CC[C@@H]3[C@]2(C)CCC[C@@]3(C)C(=O)O)C1 [Isopimaric acid, isopimaric acid] | 229 | 263 | –
3 | CC(C)(Sc1cc(C(C)(C)C)c(O)c(C(C)(C)C)c1)Sc1cc(C(C)(C)C)c(O)c(C(C)(C)C)c1 [Probucol] | – | – | plasma HDL-cholesterol contents compared with negative control (C57BL/6J mice; HFHC diet 10 days): not much different; HDL-cholesterol (C57BL/6J mice; Table 3, HFHC diet 10 days): 41.7 ± 6.4 mg/dL; HDL/total cholesterol (C57BL/6J mice; Table 3, HFHC diet 10 days): 24.3%; Total cholesterol (C57BL/6J mice; Table 3, HFHC diet 10 days): 177.0 ± 33.7 mg/dL; total cholesterol in plasma reduced, comparing to a control (C57BL/6J mice; Table 3 experiment, vs HFHC diet group): 14.5%; HDL-cholesterol (C57BL/6J mice; Table 4, HFHC diet 10 days): 44.3 ± 6.5 mg/dL; HDL/total cholesterol (C57BL/6J mice; Table 4, HFHC diet 10 days): 24.5%; Total cholesterol (C57BL/6J mice; Table 4, HFHC diet 10 days): 180.9 ± 32.6 mg/dL; plasma cholesterol reduced, comparing to a control (C57BL/6J mice; Table 4 experiment, vs HFHC diet group): 11.5%; IC50 (LDL): 1.55 µM
4 | COC(OC)[C@]1(C)CCC[C@]2(C)c3cc(O)c(C(C)C)cc3CCC12 (stereo partly drawn) [R = dimethoxymethyl, 12-hydroxyabietic-8,11,13-trien-18-dimethylacetal] | 98 | 199 | –
5 | CC(C)c1cc2c(cc1O)[C@@]1(C)CCCC(C)(C)[C@@H]1CC2 [R = methyl, ferruginol] | 46 | 88 | –
6 | COC(=O)[C@]1(C)CCC[C@]2(C)c3cc(O)c(C(C)C)cc3CCC12 (stereo partly drawn) [R = methylester, 12-hydroxyabietic-8,11,13-trien-18-oic acid methylester] | 129 | 309 | –

Continued, in another order:

Row | IC50 (hACAT-1) [µM] | IC50 (hACAT-2) [µM] | Molecule | other results
7 | 120 | 155 | C=C1CCC2[C@](C)(CO)CCC[C@]2(C)[C@H]1CC/C(C)=C\CO (stereo partly drawn) [Kayadiol, kayadiol] | –
8 | 37 | 42 | CC(C)c1cc2c(cc1O)[C@@]1(C)CCC[C@@](C)(C=O)C1CC2 (stereo partly drawn) [R = aldehyde, 18-oxoferruginol] | –
9 | 74 | 65 | CC(C)c1cc2c(cc1O)[C@@]1(C)CCC[C@@](C)(CO)C1CC2 (stereo partly drawn) [R = hydroxymethyl, 18-hydroxyferruginol] | –
10 | 79 | – | δ-cadinol | –
